pIC50: −log10 of the molar value.
Biological target: Diacylglycerol acyltransferase/mycolyltransferase Ag85C (Mycobacterium tuberculosis, UniProt P9WQN9)
Assay: In vitro concentration required to inhibit antigen 85C mycolyltransferase activity in Mycobacterium tuberculosis

Diacylglycerol acyltransferase/mycolyltransferase Ag85C, sequence (P9WQN9 whole entry): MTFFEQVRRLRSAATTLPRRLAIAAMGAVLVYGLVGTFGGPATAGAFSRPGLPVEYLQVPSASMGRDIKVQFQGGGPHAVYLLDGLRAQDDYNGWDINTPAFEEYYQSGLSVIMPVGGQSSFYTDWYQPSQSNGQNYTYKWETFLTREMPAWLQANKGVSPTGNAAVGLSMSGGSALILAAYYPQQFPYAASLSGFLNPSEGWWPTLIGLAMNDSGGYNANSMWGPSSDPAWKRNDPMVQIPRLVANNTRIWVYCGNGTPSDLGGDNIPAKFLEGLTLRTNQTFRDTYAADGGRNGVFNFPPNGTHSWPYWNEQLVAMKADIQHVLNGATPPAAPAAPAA

Row | Compound | pIC50
1 | CCCCP(=O)(O)OCC [ETHYL HYDROGEN BUTYLPHOSPHONATE] | 3.37
2 | CCCCCCCCCP(=O)(OCC)OCc1cccc(Oc2ccccc2)c1 (configuration not stated) | 4.83
3 | CCCCCCP(=O)(O)OCC [ETHYL HYDROGEN HEXYLPHOSPHONATE] | 5.45
4 | CCCCCCCCCCCCCCP(=O)(OCC)OCc1cccc(Oc2ccccc2)c1 (configuration not stated) | 3.06
5 | CCCCP(=O)(OCC)OCCN1C(=O)c2ccccc2C1=O (configuration not stated) | 4.29
6 | CCCCCCCP(=O)(OCC)OCc1cccc(Oc2ccccc2)c1 (configuration not stated) | 4.68
7 | CCCCCCCP(=O)(O)OCC [ETHYL HYDROGEN HEPTYLPHOSPHONATE] | 5.97
8 | CCCCCCP(=O)(OCC)OCc1cccc(Oc2ccccc2)c1 (configuration not stated) | 4.37
9 | CCCCCCCP(=O)(O)OCCN1C(=O)c2ccccc2C1=O | 5.83
10 | CCCCCCP(=O)(O)OCCN1C(=O)c2ccccc2C1=O | 5.36
11 | CCCCCCCCCCCCCCP(=O)(OCC)OCN1C(=O)c2ccccc2C1=O (configuration not stated) | 4.39
12 | CCCCCCCP(=O)(OCC)OCN1C(=O)c2ccccc2C1=O (configuration not stated) | 5.88
13 | CCCCP(=O)(OCC)OCN1C(=O)c2ccccc2C1=O (configuration not stated) | 5.00
14 | CCCCCCCCCP(=O)(OCC)OCN1C(=O)c2ccccc2C1=O (configuration not stated) | 4.06
15 | CCCCCCCCCP(=O)(OCC)OCCN1C(=O)c2ccccc2C1=O (configuration not stated) | 4.59
16 | CCCCP(=O)(OCC)OCc1cccc(Oc2ccccc2)c1 (configuration not stated) | 5.70
17 | CCCCCCCCCP(=O)(O)OCC [ETHYL HYDROGEN NONYLPHOSPHONATE] | 3.33

From ChEMBL document CHEMBL1147478, “Phosphonate inhibitors of antigen 85C, a crucial enzyme involved in the biosynthesis of the Mycobacterium tuberculosis cell wall” (Bioorg Med Chem Lett, 2004)
